Source: patent publication EP4722207A1, “OXOISOINDOLINYL-SUBSTITUTED TETRAHYDROPYRIMIDINEDIONE DERIVATIVE AND USE THEREOF” (Gluetacs Therapeutics (Shanghai) Co., Ltd., priority 2023, dated 2024)

Experiments:
Format in all cases: cell-based
[1] = target: T1, WEE1 (Homo sapiens, UniProt P30291+Q96SW2); assay: Western-blot assay, substrate protein degradation in hPBMCs: WEE1; details: for WEE1 substrate protein remaining %: compounds at 50 nM and 500 nM, 24 hours; for substrate protein remaining % WEE1: 24 hours of compound treatment, 50 nM and 500 nM
T1 construct: effects of the compounds of the present disclosure on the expression of target proteins in cells; endogenous in cells; host or cells: human PBMCs (hPBMCs)
T1 sequence (P30291 whole entry): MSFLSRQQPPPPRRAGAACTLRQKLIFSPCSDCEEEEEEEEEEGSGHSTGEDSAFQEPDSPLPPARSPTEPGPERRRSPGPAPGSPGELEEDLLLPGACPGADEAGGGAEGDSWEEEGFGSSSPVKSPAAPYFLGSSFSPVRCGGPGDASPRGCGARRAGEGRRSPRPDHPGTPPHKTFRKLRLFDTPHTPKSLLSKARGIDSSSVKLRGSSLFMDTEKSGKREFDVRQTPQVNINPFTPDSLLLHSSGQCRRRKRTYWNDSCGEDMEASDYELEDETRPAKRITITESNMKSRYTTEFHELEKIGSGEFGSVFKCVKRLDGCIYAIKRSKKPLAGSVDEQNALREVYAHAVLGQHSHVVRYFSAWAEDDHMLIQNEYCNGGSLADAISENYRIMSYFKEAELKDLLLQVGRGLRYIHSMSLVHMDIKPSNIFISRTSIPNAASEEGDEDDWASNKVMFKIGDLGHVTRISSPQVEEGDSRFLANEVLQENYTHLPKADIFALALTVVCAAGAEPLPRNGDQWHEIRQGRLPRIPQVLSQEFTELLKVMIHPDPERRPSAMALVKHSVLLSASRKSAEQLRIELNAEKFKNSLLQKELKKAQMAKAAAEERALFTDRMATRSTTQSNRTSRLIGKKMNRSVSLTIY
T1 sequence (Q96SW2 whole entry): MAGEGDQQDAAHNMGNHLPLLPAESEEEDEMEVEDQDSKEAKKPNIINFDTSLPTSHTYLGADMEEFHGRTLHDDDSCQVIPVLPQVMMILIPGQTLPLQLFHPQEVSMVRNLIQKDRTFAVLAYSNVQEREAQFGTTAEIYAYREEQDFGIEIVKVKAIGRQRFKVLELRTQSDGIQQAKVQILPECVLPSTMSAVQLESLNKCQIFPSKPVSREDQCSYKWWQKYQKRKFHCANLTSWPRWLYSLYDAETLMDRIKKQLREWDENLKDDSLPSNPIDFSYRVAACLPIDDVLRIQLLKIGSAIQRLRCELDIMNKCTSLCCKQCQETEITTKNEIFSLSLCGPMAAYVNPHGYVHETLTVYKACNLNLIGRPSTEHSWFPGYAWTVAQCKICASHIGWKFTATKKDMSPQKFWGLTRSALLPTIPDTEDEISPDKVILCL
T1 sequence (Q16531 whole entry partner): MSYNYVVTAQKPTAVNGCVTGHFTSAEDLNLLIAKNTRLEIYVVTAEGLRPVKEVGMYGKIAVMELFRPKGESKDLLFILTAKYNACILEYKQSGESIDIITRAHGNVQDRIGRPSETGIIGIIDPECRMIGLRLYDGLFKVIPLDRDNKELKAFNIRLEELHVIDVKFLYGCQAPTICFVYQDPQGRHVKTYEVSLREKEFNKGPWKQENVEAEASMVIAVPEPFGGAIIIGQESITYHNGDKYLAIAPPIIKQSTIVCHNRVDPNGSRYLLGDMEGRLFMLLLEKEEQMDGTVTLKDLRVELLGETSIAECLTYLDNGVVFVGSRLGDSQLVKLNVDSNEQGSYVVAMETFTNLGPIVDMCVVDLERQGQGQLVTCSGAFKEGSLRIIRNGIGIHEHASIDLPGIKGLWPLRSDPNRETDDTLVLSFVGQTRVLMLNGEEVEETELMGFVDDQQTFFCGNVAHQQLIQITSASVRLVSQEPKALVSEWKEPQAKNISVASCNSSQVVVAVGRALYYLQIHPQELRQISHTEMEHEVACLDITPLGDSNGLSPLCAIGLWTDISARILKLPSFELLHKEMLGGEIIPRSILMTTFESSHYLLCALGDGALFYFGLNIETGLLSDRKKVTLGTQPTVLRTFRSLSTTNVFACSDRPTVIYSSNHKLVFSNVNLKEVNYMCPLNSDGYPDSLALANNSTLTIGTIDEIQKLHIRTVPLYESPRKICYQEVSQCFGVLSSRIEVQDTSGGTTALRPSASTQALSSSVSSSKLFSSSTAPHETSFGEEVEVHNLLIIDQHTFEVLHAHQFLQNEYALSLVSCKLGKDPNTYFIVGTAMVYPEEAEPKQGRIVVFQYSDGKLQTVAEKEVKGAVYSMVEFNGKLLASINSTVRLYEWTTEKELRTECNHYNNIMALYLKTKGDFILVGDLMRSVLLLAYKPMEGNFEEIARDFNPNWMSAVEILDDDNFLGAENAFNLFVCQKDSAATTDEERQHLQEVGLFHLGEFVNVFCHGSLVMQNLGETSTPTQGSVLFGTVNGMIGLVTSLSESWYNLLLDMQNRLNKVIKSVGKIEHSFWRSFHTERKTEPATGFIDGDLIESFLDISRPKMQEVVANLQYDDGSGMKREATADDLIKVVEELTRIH
Description: (§1) Conventional Western blot assay was performed to evaluate the effects of the compounds of the present disclosure on the expression of target proteins in cells. • (1) Cell Seeding and Protein Harvesting: Human peripheral blood mononuclear cells (hPBMCs) at a density of 1x10^6 cells/mL were thawed according to the PBMC Recovery Protocol (Milecell Biotechnologies Inc, Shanghai). […] After 24 hours of compounds treatment, cells were harvested and lysed in RIPA protein lysate containing protease inhibitors on ice for 30 min, followed by centrifugation. The supernatant was aspirated as the extracted total cell protein. The protein concentration of the supernatant was determined using the conventional BCA (Bicinchoninic Acid) assay. • (2) To the collected supernatant, 5X SDS sample loading buffer was added, followed by denaturation at 95°C for 5 minutes. The denatured samples were then separated by SDS-PAGE electrophoresis on a polyacrylamide gel. Proteins were transferred to a nitrocellulose membrane (0.45 µm NC membrane), blocked with blocking buffer at room temperature for 1 hour, and subjected to antibody incubation and development procedures according to the antibody manufacturer's instructions (Cell Signaling Technology).
(§2) Half-Maximal Degradation Concentration value (the drug concentration required for degrading proteins by 50%, abbreviated as DC50) reads method: comparing the grayscale values of Western blot bands from drug-treated samples with those from blank DMSO-treated controls, and identifying the drug concentration range at which the grayscale value is half that of the DMSO-treated control bands.
(§3) DC50 values can be calculated using ImageJ software to measure grayscale values of Western blot bands from drug-treated samples. The concentration-response curve is fitted to estimate the drug concentration corresponding to half the grayscale value.
(§4) Target protein remaining (%) refers to the percentage of target protein remaining in cells after treatment with protein degrader compounds.
(§5) Calculation method for target protein remaining (%): Use ImageJ software to measure grayscale values of Western blot bands from drug (protein degrader)-treated samples. The grayscale value of drug-treated bands is divided by that of internal control protein bands, and the resulting quotient is normalized to obtain the relative percentage of remaining target protein after protein degrader treatment. Target protein degradation rate(%) = 1−target protein remaining(%). [formula]

[2] = target: T2, IKZF1 (Homo sapiens, UniProt Q13422+Q96SW2); assay: Western-blot assay, substrate protein degradation in hPBMCs: IKZF1; details: for IKZF1 substrate protein remaining %: compounds at 50 nM and 500 nM, 24 hours; for substrate protein remaining % IKZF1: 24 hours of compound treatment, 50 nM and 500 nM
T2 construct: effects of the compounds of the present disclosure on the expression of target proteins in cells; endogenous in cells; host or cells: human PBMCs (hPBMCs)
T2 sequence (Q13422 whole entry): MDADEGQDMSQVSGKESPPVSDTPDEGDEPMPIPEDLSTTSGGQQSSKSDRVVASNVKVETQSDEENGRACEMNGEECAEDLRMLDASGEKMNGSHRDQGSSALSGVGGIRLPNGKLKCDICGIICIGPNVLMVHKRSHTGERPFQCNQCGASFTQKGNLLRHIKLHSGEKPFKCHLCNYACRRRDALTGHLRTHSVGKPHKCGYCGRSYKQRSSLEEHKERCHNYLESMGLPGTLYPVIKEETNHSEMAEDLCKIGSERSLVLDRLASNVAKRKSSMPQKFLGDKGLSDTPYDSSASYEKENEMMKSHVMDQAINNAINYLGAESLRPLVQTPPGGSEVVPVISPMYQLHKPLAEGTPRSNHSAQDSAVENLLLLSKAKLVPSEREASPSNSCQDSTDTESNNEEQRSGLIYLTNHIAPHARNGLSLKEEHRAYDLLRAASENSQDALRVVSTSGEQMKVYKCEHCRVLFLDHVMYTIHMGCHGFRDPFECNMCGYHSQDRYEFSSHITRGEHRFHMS
T2 sequence (Q96SW2 whole entry): as the sequence (Q96SW2 whole entry) above
T2 sequence (Q16531 whole entry partner): as the sequence (Q16531 whole entry partner) above
Description: as §1, §2, §3, §4, §5

[3] = target: T3, IKZF2 (Homo sapiens, UniProt Q96SW2+Q9UKS7); assay: Western-blot assay, substrate protein degradation in hPBMCs: IKZF2; details: for IKZF2 substrate protein remaining %: compounds at 50 nM and 500 nM, 24 hours; for substrate protein remaining % IKZF2: 24 hours of compound treatment, 50 nM and 500 nM
T3 construct: effects of the compounds of the present disclosure on the expression of target proteins in cells; endogenous in cells; host or cells: human PBMCs (hPBMCs)
Description: as §1, §2, §3, §4, §5

[4] = target: T4, IKZF3 (Homo sapiens, UniProt Q96SW2+Q9UKT9); assay: Western-blot assay, substrate protein degradation in hPBMCs: IKZF3; details: for IKZF3 substrate protein remaining %: compounds at 50 nM and 500 nM, 24 hours; for substrate protein remaining % IKZF3: 24 hours of compound treatment, 50 nM and 500 nM
T4 construct: effects of the compounds of the present disclosure on the expression of target proteins in cells; endogenous in cells; host or cells: human PBMCs (hPBMCs)
T4 sequence (Q9UKT9 whole entry): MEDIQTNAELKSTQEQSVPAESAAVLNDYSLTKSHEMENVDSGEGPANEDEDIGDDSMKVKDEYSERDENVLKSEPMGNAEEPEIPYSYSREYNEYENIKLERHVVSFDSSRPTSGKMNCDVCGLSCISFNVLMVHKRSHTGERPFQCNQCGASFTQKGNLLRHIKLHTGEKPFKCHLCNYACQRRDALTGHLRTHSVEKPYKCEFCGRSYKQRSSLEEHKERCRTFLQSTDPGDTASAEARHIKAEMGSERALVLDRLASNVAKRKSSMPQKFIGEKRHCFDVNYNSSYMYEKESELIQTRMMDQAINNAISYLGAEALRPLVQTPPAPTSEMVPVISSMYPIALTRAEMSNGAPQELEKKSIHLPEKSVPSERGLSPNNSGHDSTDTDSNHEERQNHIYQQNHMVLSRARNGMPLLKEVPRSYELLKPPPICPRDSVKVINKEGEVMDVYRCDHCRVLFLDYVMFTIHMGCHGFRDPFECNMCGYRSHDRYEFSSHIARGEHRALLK
T4 sequence (Q96SW2 whole entry): as the sequence (Q96SW2 whole entry) above
T4 sequence (Q16531 whole entry partner): as the sequence (Q16531 whole entry partner) above
Description: as §1, §2, §3, §4, §5

[5] = target: T5, CK1α (Homo sapiens, UniProt P48729+Q96SW2); assay: Western-blot assay, substrate protein degradation in hPBMCs: CK1α; details: for CK1α substrate protein remaining %: compounds at 50 nM and 500 nM, 24 hours; for substrate protein remaining % CK1α: 24 hours of compound treatment, 50 nM and 500 nM
T5 construct: effects of the compounds of the present disclosure on the expression of target proteins in cells; endogenous in cells; host or cells: human PBMCs (hPBMCs)
T5 sequence (P48729 whole entry): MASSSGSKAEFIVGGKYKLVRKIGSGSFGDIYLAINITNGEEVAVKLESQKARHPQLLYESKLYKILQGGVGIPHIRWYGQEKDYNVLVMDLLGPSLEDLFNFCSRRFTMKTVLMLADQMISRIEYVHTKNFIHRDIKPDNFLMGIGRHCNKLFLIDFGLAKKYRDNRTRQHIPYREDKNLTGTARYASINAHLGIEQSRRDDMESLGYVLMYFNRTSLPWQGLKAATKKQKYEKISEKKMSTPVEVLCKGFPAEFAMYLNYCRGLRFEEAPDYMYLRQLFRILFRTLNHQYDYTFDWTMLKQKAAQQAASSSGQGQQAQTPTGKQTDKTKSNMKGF
T5 sequence (Q96SW2 whole entry): as the sequence (Q96SW2 whole entry) above
T5 sequence (Q16531 whole entry partner): as the sequence (Q16531 whole entry partner) above
Description: as §1, §2, §3, §4, §5

[6] = target: T6, GSPT1 (Homo sapiens, UniProt P15170+Q96SW2); assay: Western-blot assay, substrate protein degradation in hPBMCs: GSPT1; details: for GSPT1 substrate protein remaining %: compounds at 50 nM and 500 nM, 24 hours; for substrate protein remaining % GSPT1: 24 hours of compound treatment, 50 nM and 500 nM
T6 construct: effects of the compounds of the present disclosure on the expression of target proteins in cells; endogenous in cells; host or cells: human PBMCs (hPBMCs)
T6 sequence (P15170 whole entry): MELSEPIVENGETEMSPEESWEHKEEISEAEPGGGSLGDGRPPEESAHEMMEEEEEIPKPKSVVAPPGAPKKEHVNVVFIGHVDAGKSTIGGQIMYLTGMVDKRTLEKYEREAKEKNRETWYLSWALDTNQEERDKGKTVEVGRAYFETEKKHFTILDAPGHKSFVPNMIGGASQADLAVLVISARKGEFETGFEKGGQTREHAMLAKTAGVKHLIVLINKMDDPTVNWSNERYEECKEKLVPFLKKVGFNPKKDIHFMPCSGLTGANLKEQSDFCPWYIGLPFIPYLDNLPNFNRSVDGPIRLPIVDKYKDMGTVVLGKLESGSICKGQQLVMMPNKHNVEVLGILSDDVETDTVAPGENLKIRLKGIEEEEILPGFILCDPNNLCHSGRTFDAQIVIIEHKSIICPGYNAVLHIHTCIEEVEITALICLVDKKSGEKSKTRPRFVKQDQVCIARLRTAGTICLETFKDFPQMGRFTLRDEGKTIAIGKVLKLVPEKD
T6 sequence (Q96SW2 whole entry): as the sequence (Q96SW2 whole entry) above
T6 sequence (Q16531 whole entry partner): as the sequence (Q16531 whole entry partner) above
Description: as §1, §2, §3, §4, §5

## Cc1ccsc1C1=CCN(Cc2ccc3c(c2)C(=O)N(N2CCC(=O)NC2=O)C3=O)CC1 [GT-06434, 2-(2,4-dioxotetrahydropyrimidin-1(2H)-yl)-5-((4-(3-methylthiophen-2-yl)-3,6-dihydropyridin-1(2H)-yl)methyl)isoindoline-1,3-dione]
[1]
  WEE1 substrate protein remaining %: A ("A" is defined as 0% ≤ substrate protein remaining % ≤ 80%)
[2]
  IKZF1 substrate protein remaining %: B ("B" is defined as 80%< substrate protein remaining %≤ 100%)
[3]
  IKZF2 substrate protein remaining %: A ("A" is defined as 0% ≤ substrate protein remaining % ≤ 80%)
[4]
  IKZF3 substrate protein remaining %: A ("A" is defined as 0% ≤ substrate protein remaining % ≤ 80%)
[5]
  CK1α substrate protein remaining %: B ("B" is defined as 80%< substrate protein remaining %≤ 100%)
[6]
  GSPT1 substrate protein remaining %: A ("A" is defined as 0% ≤ substrate protein remaining % ≤ 80%)

## O=C1CCN(N2C(=O)c3ccc(CN4CC=C(c5ccnc(Cl)c5Cl)CC4)cc3C2=O)C(=O)N1 [GT-07440, 5-((2',3'-dichloro-3,6-dihydro-[4,4'-bipyridin]-1(2H)-yl)methyl)-2-(2,4-dioxotetrahydropyrimidin-1(2H)-yl)isoindoline-1,3-dione]
[1]
  substrate protein remaining % WEE1: A (0% ≤ substrate protein remaining % ≤ 80%)
[2]
  substrate protein remaining % IKZF1: B (80%< substrate protein remaining %≤ 100%)
[3]
  substrate protein remaining % IKZF2: B (80%< substrate protein remaining %≤ 100%)
[4]
  substrate protein remaining % IKZF3: B (80%< substrate protein remaining %≤ 100%)
[5]
  substrate protein remaining % CK1α: A (0% ≤ substrate protein remaining % ≤ 80%)
[6]
  substrate protein remaining % GSPT1: A (0% ≤ substrate protein remaining % ≤ 80%)

## O=C1CCN(N2Cc3cc(CN4CCN(c5ccncc5)CC4)ccc3C2=O)C(=O)N1 [GT-05437, 1-(1-oxo-5-((4-(pyridin-4-yl)piperazin-1-yl)methyl)isoindolin-2-yl)dihydropyrimidine-2,4(1H,3H)-dione]
[1]
  substrate protein remaining % WEE1: B (80%< substrate protein remaining %≤ 100%)
[2]
  substrate protein remaining % IKZF1: B (80%< substrate protein remaining %≤ 100%)
[3]
  substrate protein remaining % IKZF2: B (80%< substrate protein remaining %≤ 100%)
[4]
  substrate protein remaining % IKZF3: B (80%< substrate protein remaining %≤ 100%)
[5]
  substrate protein remaining % CK1α: B (80%< substrate protein remaining %≤ 100%)
[6]
  substrate protein remaining % GSPT1: A (0% ≤ substrate protein remaining % ≤ 80%)

## O=C1CCN(N2Cc3cc(CN4CCC(c5ccccc5C(F)(F)F)CC4)ccc3C2=O)C(=O)N1 [GT-06891, 1-(1-oxo-5-((4-(2-(trifluoromethyl)phenyl)piperidin-1-yl)methyl)isoindolin-2-yl)dihydropyrimidine-2,4(1H,3H)-dione]
[1]
  WEE1 substrate protein remaining %: A ("A" is defined as 0% ≤ substrate protein remaining % ≤ 80%)
[2]
  IKZF1 substrate protein remaining %: B ("B" is defined as 80%< substrate protein remaining %≤ 100%)
[3]
  IKZF2 substrate protein remaining %: A ("A" is defined as 0% ≤ substrate protein remaining % ≤ 80%)
[4]
  IKZF3 substrate protein remaining %: B ("B" is defined as 80%< substrate protein remaining %≤ 100%)
[5]
  CK1α substrate protein remaining %: B ("B" is defined as 80%< substrate protein remaining %≤ 100%)
[6]
  GSPT1 substrate protein remaining %: A ("A" is defined as 0% ≤ substrate protein remaining % ≤ 80%)

## O=C1CCN(N2C(=O)c3ccc(CN4CCC(n5cnc6cc(F)ccc65)CC4)cc3C2=O)C(=O)N1 [GT-07529, 2-(2,4-dioxotetrahydropyrimidin-1(2H)-yl)-5-((4-(5-fluoro-1H-benzo[d]imidazol-1-yl)piperidin-1-yl)methyl)isoindoline-1,3-dione]
[1]
  substrate protein remaining % WEE1: B (80%< substrate protein remaining %≤ 100%)
[2]
  substrate protein remaining % IKZF1: B (80%< substrate protein remaining %≤ 100%)
[3]
  substrate protein remaining % IKZF2: B (80%< substrate protein remaining %≤ 100%)
[4]
  substrate protein remaining % IKZF3: B (80%< substrate protein remaining %≤ 100%)
[5]
  substrate protein remaining % CK1α: A (0% ≤ substrate protein remaining % ≤ 80%)
[6]
  substrate protein remaining % GSPT1: A (0% ≤ substrate protein remaining % ≤ 80%)

## O=C1CCN(N2Cc3cc(CN4CCN(c5c(F)cncc5Cl)CC4)ccc3C2=O)C(=O)N1 [GT-07171]
[1]
  WEE1 substrate protein remaining %: A ("A" is defined as 0% ≤ substrate protein remaining % ≤ 80%)
[2]
  IKZF1 substrate protein remaining %: B ("B" is defined as 80%< substrate protein remaining %≤ 100%)
[3]
  IKZF2 substrate protein remaining %: B ("B" is defined as 80%< substrate protein remaining %≤ 100%)
[4]
  IKZF3 substrate protein remaining %: B ("B" is defined as 80%< substrate protein remaining %≤ 100%)
[5]
  CK1α substrate protein remaining %: B ("B" is defined as 80%< substrate protein remaining %≤ 100%)
[6]
  GSPT1 substrate protein remaining %: B ("B" is defined as 80%< substrate protein remaining %≤ 100%)

## O=C1CCN(N2Cc3cc(CN4CC=C(c5ccnc(F)c5F)CC4)ccc3C2=O)C(=O)N1 [GT-06397, 1-(5-((2',3'-difluoro-3,6-dihydro-[4,4'-bipyridin]-1(2H)-yl)methyl)-1-oxoisoindolin-2-yl)dihydropyrimidine-2,4(1H,3H)-dione]
[1]
  WEE1 substrate protein remaining %: A ("A" is defined as 0% ≤ substrate protein remaining % ≤ 80%)
[2]
  IKZF1 substrate protein remaining %: B ("B" is defined as 80%< substrate protein remaining %≤ 100%)
[3]
  IKZF2 substrate protein remaining %: A ("A" is defined as 0% ≤ substrate protein remaining % ≤ 80%)
[4]
  IKZF3 substrate protein remaining %: B ("B" is defined as 80%< substrate protein remaining %≤ 100%)
[5]
  CK1α substrate protein remaining %: B ("B" is defined as 80%< substrate protein remaining %≤ 100%)
[6]
  GSPT1 substrate protein remaining %: A ("A" is defined as 0% ≤ substrate protein remaining % ≤ 80%)

## O=C1CCN(N2C(=O)c3ccc(CN4C[C@H]5C[C@@H]4CN5c4cccc(Cl)c4Cl)cc3C2=O)C(=O)N1 [GT-07435, 5-(((1R,4R)-5-(2,3-dichlorophenyl)-2,5-diazabicyclo[2.2.1]heptan-2-yl)methyl)-2-(2,4-dioxotetrahydropyrimidin-1(2H)-yl)isoindoline-1,3-dione]
[1]
  substrate protein remaining % WEE1: B (80%< substrate protein remaining %≤ 100%)
[2]
  substrate protein remaining % IKZF1: B (80%< substrate protein remaining %≤ 100%)
[3]
  substrate protein remaining % IKZF2: B (80%< substrate protein remaining %≤ 100%)
[4]
  substrate protein remaining % IKZF3: B (80%< substrate protein remaining %≤ 100%)
[5]
  substrate protein remaining % CK1α: A (0% ≤ substrate protein remaining % ≤ 80%)
[6]
  substrate protein remaining % GSPT1: B (80%< substrate protein remaining %≤ 100%)

## O=C1CCN(N2Cc3cc(CN4CCN(C(c5ccc(Cl)cc5)c5ccc(Cl)cc5)CC4)ccc3C2=O)C(=O)N1 [GT-04895, 1-(5-((4-(bis(4-chlorophenyl)methyl)piperazin-1-yl)methyl)-1-oxoisoindolin-2-yl)dihydropyrimidine-2,4(1H,3H)-dione]
[1]
  WEE1 substrate protein remaining %: B ("B" is defined as 80%< substrate protein remaining %≤ 100%)
[2]
  IKZF1 substrate protein remaining %: A ("A" is defined as 0% ≤ substrate protein remaining % ≤ 80%)
[3]
  IKZF2 substrate protein remaining %: A ("A" is defined as 0% ≤ substrate protein remaining % ≤ 80%)
[4]
  IKZF3 substrate protein remaining %: B ("B" is defined as 80%< substrate protein remaining %≤ 100%)
[5]
  CK1α substrate protein remaining %: B ("B" is defined as 80%< substrate protein remaining %≤ 100%)
[6]
  GSPT1 substrate protein remaining %: A ("A" is defined as 0% ≤ substrate protein remaining % ≤ 80%)

## O=C1CCN(N2C(=O)c3ccc(CN4CC=C(c5ccsc5)CC4)cc3C2=O)C(=O)N1 [GT-06435, 2-(2,4-dioxotetrahydropyrimidin-1(2H)-yl)-5-((4-(thiophen-3-yl)-3,6-dihydropyridin-1(2H)-yl)methyl)isoindoline-1,3-dione]
[1]
  WEE1 substrate protein remaining %: A ("A" is defined as 0% ≤ substrate protein remaining % ≤ 80%)
[2]
  IKZF1 substrate protein remaining %: B ("B" is defined as 80%< substrate protein remaining %≤ 100%)
[3]
  IKZF2 substrate protein remaining %: A ("A" is defined as 0% ≤ substrate protein remaining % ≤ 80%)
[4]
  IKZF3 substrate protein remaining %: A ("A" is defined as 0% ≤ substrate protein remaining % ≤ 80%)
[5]
  CK1α substrate protein remaining %: B ("B" is defined as 80%< substrate protein remaining %≤ 100%)
[6]
  GSPT1 substrate protein remaining %: A ("A" is defined as 0% ≤ substrate protein remaining % ≤ 80%)
